Data published in article PMC6335420, “The cell cycle regulator GpsB functions as cytosolic adaptor for multiple cell wall enzymes” (Nature Communications, 2019).
“Also recorded” adds a separate entry of the source. Where two headings read alike, the source gives them in different places. Residues, ends and D or L forms follow the SMILES beside them. *: point of attachment. Fluorescein(5-Mal) = O=C1OC2(c3ccc(O)cc3Oc3cc(O)ccc32)c2ccc(N3C(=O)CC(*)C3=O)cc21; X1 = CN(C)c1ccc2c(-c3ccc(N4C(=O)CC(*)C4=O)cc3C(=O)[O-])c3ccc(=[N+](C)C)cc-3oc2c1

Experiments:
[1] = target: T1, SpGpsB1-63 (Streptococcus pneumoniae, UniProt Q8DR57); experiment: Fluorescence polarisation binding to SpGpsB1-63; conditions: FP
T1 construct: The SpGpsB1-63 expression construct (pET28SpGpsB1-63) was prepared by PCR amplification of gpsB; His6 (N, cleaved yes); made in house; host or cells: E. coli BL21(DE3)
Excerpt: (§1) 75 the BsGpsB5-64:BsPBP11-17 complex.

[2] = Circular dichroism of PBP peptides (helicity); assay type: physicochemical
Procedure: CD spectra were recorded on a JASCO J-810 spectropolarimeter with a PTC-4235 Peltier temperature controller using 1 mm path length quartz cuvettes. For full wavelength scans a scan speed of 10 nm^−1min^−1 and a response time of 4 s were used, the final spectra were the average of at least four measurements. BsPBP1_1-32 CD spectra were recorded at 4 °C in a buffer of 20 mM sodium phosphate, pH 7.3 at a peptide concentration of 25 μM. Peptide helical contents were estimated from molar ellipticities at 222 nm using the equation helix = [θ]222 nm / (39,500(1–2.57/n))[78] where n is the number of residues in the peptide. LmPBPA1_1-15 CD spectra were analysed at 40 μM in 20 mM sodium phosphate buffer, pH 7.8, for samples containing 0, 40 and 60% trifluoroethanol (TFE). For samples containing 80% TFE, 5 mM sodium phosphate buffer, pH 7.8, was used. The CD spectra of BsGpsB1-68 proteins were measured at a concentration of 4.5 μM in a buffer of 20 mM sodium phosphate (pH 7.8) 150 mM NaCl. For thermal melt experiments, a response time of 8 s and scan rate of 1 °C^−1min^−1 were used. All thermal melts were reversible as CD spectra recorded before and after the melts in the wavelength range 200–240 nm could be superimposed.

[3] = target: T2, BsGpsB1-68 (Bacillus subtilis, UniProt P0CI74); assay type: binding; conditions: FP, relative to wild-type peptide
T2 construct: His6 (N, cleaved yes); made in house; host or cells: E. coli BL21(DE3)
Excerpt: as §1

[4] = test system: LmGpsB; experiment: BACTH (bacterial two-hybrid) interaction with LmGpsB; assay type: cell-based, Listeria monocytogenes; conditions: E. coli BTH101, 30 °C, photographed after 24 and 48 h; LmPBPA1 variants as T25-PBPA1ΔGT-TP
Excerpt: The BACTH system[63] was used for analysis of protein:protein interactions. First, LmGpsB was screened against LmPBPA1 (lmo1892) variants to identify residues in LmPBPA1 that are important for binding LmGpsB. To facilitate screening, we used a T25 fragment of Bordetella pertussis adenylate cyclase that had been fused to the N-terminal 91 amino acids of LmPBPA1 to create a T25-LmPBPA1 fusion containing the N-terminal cytoplasmic mini-domain and the transmembrane helix, but lacking lacking the extracellular glycosyltransferase and transpeptidase domains (T25-PBPA1ΔGT-TP) in plasmid pSH437[21]. LmPBPA1 residues that corresponded to the BsGpsB binding motif of BsPBP1 (Thr7, Arg8, Tyr11, Arg12) and additional positively charged amino acids (Lys14, Lys20, Lys21, Lys22, Lys25, Arg26, Lys28 and Arg29) in T25-PBP A1ΔGT-TP were replaced with alanine prior to screening against GpsB-T18. The pSH437 plasmid was mutated by Quikchange mutagenesis using the primer pairs SHW744/SHW754 (T7A, pSH485), SHW746/SHW747 (R8A, pSH486), SHW755/SHW756 (Y11A, pSH487), SHW748/SHW749 (R12A, pSH488), SHW757/SHW758 (K14A, pSH489), SHW759/SHW760 (K20A, pSH490), SHW761/SHW762 (K21A, pSH491), SHW763/SHW764 (K22A, pSH492), SHW765/SHW766 (K25A, pSH493), SHW767/SHW768 (R26A, pSH494), SHW769/SHW770 (K28A, pSH495) and SHW771/SHW772 (R29A, pSH496).
pJR164 and pJR169 were constructed by cloning sepF (primers JR334/JR335 and XbaI/KpnI digestion) into pKT25 and p25-N, respectively. pJR165 and pJR170 were generated by cloning ezrA into pKT25 and p25-N, respectively, using primers JR339/JR340 and XbaI/KpnI for digestion. pJR172 and pJR174 were obtained by cloning zapA into pKT25 and p25-N, respectively, using primers JR337/JR338 and PstI/KpnI. pJR213 was constructed by amplification of divIB with primers JR353/JR354 and cloning into pKT25 using XbaI/KpnI. pJR214 was generated by PCR amplification of divIC with primers JR355/JR356 and cloning into pKT25 using XbaI/KpnI. mreBH was amplified by PCR using oligonucleotides JR368/JR369 and cloned into pKT25 and p25-N using XbaI/KpnI, resulting in pJR233 and pJR236, respectively. pJR242 and pJR243 were obtained by cloning mreC into pKT25 and p25-N, respectively, using primers JR364/JR365 and PstI/KpnI digestion. pbpA2 was cloned into pKT25 using oligonucleotides SHW153/SHW154 and XbaI/KpnI to create pJR250. pbpB1 was amplified with primers SHW157/SHW158 and cloned with SmaI/EcoRI into pKT25, yielding pSH236. pbpB2 was amplified with primers SHW155/SHW156 and cloned into pKT25 after PstI/BamHI digestion, yielding plasmid pSH235. pbpB3 was amplified using primers SHW159/160 and cloned by PstI/BamHI digestion into pKT25, resulting in pSH237. Finally, pSH484 was obtained by removing the N-terminal domain from gpsB present on plasmid pSH226 in a PCR with the primer pair SHW752/SHW753.
Plasmids encoding the respective genes fused to the N- or C-termini of the T18- or the T25-fragment of the Bordetella pertussis adenylate cyclase were co-transformed into E. coli BTH101. Transformants were selected on LB agar plates containing ampicillin (100 µg^−1mL^−1), kanamycin (50 µg^−1mL^−1), X-Gal (40 µg^−1mL^−1) and IPTG (0.1 mM) and photographs were taken after 24 and 48h growth at 30 °C. The BACTH experiments in Fig. 2b and Supplementary Figure 3C, D were repeated at least twice.

Molecule: CC[C@H](C)[C@H](NC(=O)[C@@H](NC(=O)[C@H](CCCNC(=N)N)NC(=O)[C@H](CCCCN)NC(=O)[C@@H](NC(=O)[C@H](Cc1c[nH]c2ccccc12)NC(=O)[C@H](CCC(=O)O)NC(=O)[C@H](CCSC)NC(=O)CNC(=O)[C@H](CO)NC(=O)CNC(=O)[C@H](CO)NC(=O)CN)[C@@H](C)O)C(C)C)C(=O)N[C@@H](CCCNC(=N)N)C(=O)N[C@@H](Cc1ccc(O)cc1)C(=O)N[C@@H](C)C(=O)N[C@H](C(=O)N[C@@H](CCCCN)C(=O)N[C@@H](CC(N)=O)C(=O)N[C@@H](CCCNC(=N)N)C(=O)N[C@@H](CCCCN)C(=O)N[C@@H](CO)C(=O)N1CCC[C@H]1C(=O)N[C@@H](C)C(=O)N[C@@H](CCC(=O)O)C(=O)N[C@@H](CC(N)=O)C(=O)N[C@@H](CCCNC(=N)N)C(=O)N[C@@H](CCCNC(=N)N)C(=O)N[C@@H](CCCNC(=N)N)C(=O)N[C@H](C(=O)NCC(=O)N[C@@H](CCCCN)C(=O)N[C@@H](CO)C(=O)N[C@@H](CC(C)C)C(=O)N[C@@H](CSC1CC(=O)N(c2ccc3c(c2)C(=O)OC32c3ccc(O)cc3Oc3cc(O)ccc32)C1=O)C(=O)N[C@@H](CO)C(=O)O)C(C)C)[C@@H](C)O (stereo partly shown) [Fluorescein-SpPBP2x1-29] (H-GSGSGMEWTKRVIRYATKNRKSPAENRRRVGKSLC(Fluorescein(5-Mal))S-OH; N-terminus and C-terminus assumed)
- binding to SpGpsB1-63 (in words) [1]: interacts

Molecule: CSCC[C@H](NC(=O)[C@H](CO)NC(=O)CN)C(=O)N[C@@H](C)C(=O)N[C@@H](CC(=O)O)C(=O)N[C@@H](CCC(N)=O)C(=O)N[C@@H](Cc1ccccc1)C(=O)N[C@@H](CC(N)=O)C(=O)N[C@@H](CO)C(=O)N[C@@H](CCCNC(=N)N)C(=O)N[C@@H](CCC(=O)O)C(=O)N1CCC[C@H]1C(=O)N[C@@H](CCCNC(=N)N)C(=O)N[C@@H](CCCNC(=N)N)C(=O)N[C@@H](CCCCN)C(=O)N[C@@H](C)C(=O)N[C@@H](CC(N)=O)C(=O)N[C@@H](CSC1CC(=O)N(c2ccc(-c3c4ccc(=[N+](C)C)cc-4oc4cc(N(C)C)ccc34)c(C(=O)[O-])c2)C1=O)C(=O)N[C@@H](CCCCN)C(=O)N[C@@H](CO)C(=O)N[C@@H](CO)C(=O)N1CCC[C@H]1C(=O)N[C@@H](CO)C(=O)N1CCC[C@H]1C(=O)N[C@@H](CCCCN)C(=O)N[C@@H](CCCCN)C(=O)NCC(=O)N[C@@H](CCCCN)C(=O)N[C@@H](CCCCN)C(=O)N[C@@H](CCCNC(=N)N)C(=O)N[C@@H](CCCCN)C(=O)N[C@@H](CCCCN)C(=O)NCC(=O)NCC(=O)O (stereo partly shown) [TAMRA-BsPBP11-32 Ala10Pro] (H-GSMADQFNSREPRRKANC(X1)KSSPSPKKGKKRKKGG-OH)
- helical residues corresponding to helical content ([2]; CD, 222 nm, 4 °C, 20 mM sodium phosphate pH 7.3, 25 μM peptide): one
- α-helical content ([2]; CD, 222 nm, 4 °C, 20 mM sodium phosphate pH 7.3, 25 μM peptide, average of at least four measurements): 2%
- secondary structure by CD (in words) ([2]; LmPBPA1 peptides 40 μM, 20 mM sodium phosphate pH 7.8, TFE 0-80% (5 mM phosphate at 80%), BsPBP1_1-32 peptides 25 μM, pH 7.3, 4 °C): mostly random coil
- reduction in affinity for BsGpsB1-68 ([3]; listed as BsPBP1_1-32^Ala10Pro): at least 6 fold
- reduction in affinity for BsGpsB1-68 ([3]; listed as BsPBP11-32Ala10Pro): > 8 fold

B1: LmDivIB: L. monocytogenes DivIB (protein)
chain: MAENKRVISIENRIPELKKYRKKKLVRHLAILIGIFVILIAITLYFLSPLSKLDKIAVSGNKQLTENEVRKESGLEIGEFVIGISNGKTEDALKKNTLIKDATVSKEGLNDVQINITEFKTIGYQQQDGKYYDVLESGIMLTDQPRQFPIGNDLLFQNFKNGKTLEKMVDQINKLPKDVVSSISEVIYSPTKSDKNHIKLYMNDGNQVSADISTFAEKMQHYPAIVAQLAKGQKGVIDIEVGSYFQSYYQQNAEKKATEEAAKEKKETNE
modifications: left off: T25 fragment of Bordetella pertussis adenylate cyclase (vector pKT25), end not stated, kept
notes: L. monocytogenes DivIB
- BACTH interaction with LmGpsB [4]: turned blue after 2 days incubation

B2: LmMreC: L. monocytogenes MreC (protein)
chain: MPQFFLNKRLIILLISIIVLVALVGFSLRDRENASWPEQFVKDVVGFGENIVAKPTSFISGAVDGVVDLKNTYTENQHLKERLEELAQLESEVADLKKENKDLKESLDITDSIRDYDPLNASVISRNPTNWNDQVEIDKGSSDGVKPDMAVTTPSGLIGKVTTTGAKSATVELLTSSDVKNRVSAKVQGKENAFGIINGYDSDTKLLELKQLPYDMKFKKGQKVVTSGLGGKFPAGIFIGTIEKVETDKMGLSQTAFIKPGADMYDLNHVTVLKRSAEAGTTDDDTTSSDTTGGQ
modifications: left off: T25 fragment of Bordetella pertussis adenylate cyclase (vectors pKT25 and p25-N), end not stated, kept
notes: L. monocytogenes MreC
- BACTH interaction with LmGpsB [4]: turned blue after one day of incubation; also recorded: turned blue after 2 days incubation

B3: LmGpsB: L. monocytogenes GpsB (self-interaction) (protein)
chain: MTSEQFEYHLTGKEILEKEFKTGLRGYSPEDVDEFLDMVIKDYSTFTQEIEALQAENIRLVQELDNAPLRTSTQPAPTFQAAAQPAGTTNFDILKRLSNLEKHVFGNKLDDNE
modifications: left off: T18 fragment of Bordetella pertussis adenylate cyclase, C-terminal, kept
- BACTH interaction with LmGpsB [4]: turned blue after one day of incubation

B4: LmSepF: L. monocytogenes SepF (protein)
chain: MGLSNKFKSFFFLDEEEEYYEEEVAREPEPMQKKTKKEKPNKNRFYAVEEDDAKVVSMQGAQFSSRMVLAEPRVYAEAQELADYLKEYKSVVVNLQRISHDQATRIVDFLSGTVYALGGDIQRVGNNIFLCTPDNVEVDGSISEMLDEQNFM
modifications: left off: T25 fragment of Bordetella pertussis adenylate cyclase (vectors pKT25 and p25-N), end not stated, kept
notes: L. monocytogenes SepF
- BACTH interaction with LmGpsB [4]: turned blue after one day of incubation
